Data as given in patent publication US4278678A, “Substituted oxy-cyclohexylacetic acid derivatives” (Kaken Chemical Co., Ltd., priority 1978, dated 1981).
Where two headings read alike, the source gives them in different places.

What was measured:
[1] = tested on: rats with dietary hyperlipidemia; assay: The antihyperlipidemic activity in rats with dietary hyperlipidemia (Test 1); type: in vivo, Wister type male rats; details: Rattus norvegicus, cholesterol diet, 100 mg/kg oral once daily for 4 days, 24 hours after administration
Method: The antihyperlipidemic activity in rats with dietary hyperlipidemia.
In the tests, Wister type male rats (weight: 140 g) were used in groups of 6 each.
A feed containing 2% of cholesterol, 1% of sodium cholate and 5% of coconut oil was given for 4 days to cause hyperlipidemia.
Each active ingredient was suspended in a 1% aqueous solution of Tween 80 (® polyoxyethylene sorbitane monoalkylate) and the suspension was orally administered in a dose of 100 mg/kg once daily for 4 days starting with the supply of the cholesterol supplemented diet.
After 24 hours from the administration, blood was sampled and the concentration of total cholesterols in blood-plasma was measured by the method described in Clinical chemistry Vol. 22 page 393 (1968) and the concentration of triglyceride (neutral fat) was measured by Fletcher method (Clinica Chimica Acta) Vol. 10 page 451 (1964).
As the active ingredients, the compounds of the invention shown in Table and ethyl-α-(p-chlorophenoxy)-isobutylate having the formula [drawing 25] were used.

[2] = acute toxicity tests in mice (Test 2); details: mouse, in vivo; male mice, oral, in olive oil; mortality after 72 hours, area method
Method: In the acute toxicity tests, male mice (weight: 22 to 25 g) were used in groups of 10 each.
Each active ingredient was dissolved in olive oil and the solution was orally administrated in a volume corresponding to the body weight.
LD50 was calculated by the area method from the mortal percent after 72 hours from the administration.

[3] = total cholesterol in blood-plasma, read-out: Antihypertipidemic activity (%) Cholesterol
[4] = triglyceride (neutral fat), Fletcher method, read-out: Antihypertipidemic activity (%) Triglyceride

Compound	inhibition in vivo at 100 mg/kg [1, 3] [%]	inhibition in vivo at 100 mg/kg [1, 4] [%]	LD50 at 72 h [2] [mg/kg]
CCOC(=O)C(Oc1cccc(C(F)(F)F)c1)C1CCCCC1 (stereo not drawn) [Compound 1]	12.1	49.3	2500
CCOC(=O)C(Oc1cccnc1)C1CCCCC1 (stereo not drawn) [Compound 2]	0	45	2500
CCOC(=O)C(Oc1ccc(Cl)cc1)C1CCCCC1 (stereo not drawn) [Compound 3]	43.3	31.5	> 3000
CCOC(=O)C(Oc1c(C)cccc1C)C1CCCCC1 (stereo not drawn) [Compound 4]	38.5	0	> 3000
CCOC(=O)C(Oc1ccc(OC)cc1)C1CCCCC1 (stereo not drawn) [Compound 5]	39	8.9	> 3000
CCOC(=O)C(Oc1ccc(-c2ccccc2)cc1)C1CCCCC1 (stereo not drawn) [Compound 6, Ethyl α-(p-phenylphenoxy)α-cyclohexylacetate]	52.3	44	> 3000
CCOC(=O)C(Oc1ccc(C2CCCCC2)cc1)C1CCCCC1 (stereo not drawn) [Compound 7, Ethyl α-(p-cyclohexylphenoxy)α-cyclohexylacetate]	42.6	51.6	> 3000
CCOC(=O)C(Oc1ccc(C(C)CC)cc1)C1CCCCC1 (stereo not drawn) [Compound 8]	36.7	17.1	> 3000
CCOC(=O)C(Oc1ccc(C(C)(C)c2ccccc2)cc1)C1CCCCC1 (stereo not drawn) [Compound 9]	40.3	28.1	> 3000
CCOC(=O)C(Oc1ccc2c(c1)CCCC2)C1CCCCC1 (stereo not drawn) [Compound 10, Ethyl α-(5,6,7,8-tetrahydro-2-naphthoxy)-α-cyclohexylacetate]	52.1	44.4	2500
CCOC(=O)C(Oc1ccc(C(C)=O)cc1)C1CCCCC1 (stereo not drawn) [Compound 11]	31.8	30.9	> 3000
CCOC(=O)C(Oc1cccc(C(C)=O)c1)C1CCCCC1 (stereo not drawn) [Compound 12]	14.3	11.5	> 3000
CCOC(=O)C(Oc1cccc(C)c1)C1CCCCC1 (stereo not drawn) [Compound 13]	7.9	59.7	> 3000
CCOC(=O)C(Oc1ccc(CC)cc1)C1CCCCC1 (stereo not drawn) [Compound 14, Ethyl α-(p-ethylphenoxy)α-cyclohexylacetate]	42.6	64.8	> 3000
CCOC(=O)C(Oc1ccc(Cl)c2ccccc12)C1CCCCC1 (stereo not drawn) [Compound 15]	0	53	2500
CCOC(=O)C(Oc1ccc(Oc2ccccc2)cc1)C1CCCCC1 (stereo not drawn) [Compound 16, ethyl α-(p-phenoxyphenoxy)α-cyclohexylacetate]	40.8	38.7	> 3000
CCOC(=O)C(Oc1ccc(Oc2ccc(Cl)cc2)cc1)C1CCCCC1 (stereo not drawn) [Compound 17]	45.3	46.5	> 3000
CCOC(=O)C(Oc1ccc(-c2ccc(Cl)cc2)cc1)C1CCCCC1 (stereo not drawn) [Compound 18]	43.7	40.5	> 3000
O=C(O)C(Oc1ccc(C2CCCCC2)cc1)C1CCCCC1 (stereo not drawn) [Compound 19, α-(p-cyclohexylphenoxy)α-cyclohexylacetic acid]	35.8	32.4	> 3000
